This is an account of results in publication PMC8086230 (Acta Pharmacologica Sinica, 2021).

Like-named read-outs stand apart in the source and are kept apart here. Where only a bound is given, the exact number is not on record here.

Assay in series [1]: not given
The source holds these as a separate data set.

The test system of series [2] is mock HEK-293 cells. Put plainly: Passive diffusion in mock HEK-293 cells. It counts as in vitro ADME, human.
Series [3] can be described thus: BCS classification stated in the discussion.
In series [4] the target is T1, human renal 11β-HSD2 (Homo sapiens, UniProt P80365).
T1 sequence (P80365 1-405): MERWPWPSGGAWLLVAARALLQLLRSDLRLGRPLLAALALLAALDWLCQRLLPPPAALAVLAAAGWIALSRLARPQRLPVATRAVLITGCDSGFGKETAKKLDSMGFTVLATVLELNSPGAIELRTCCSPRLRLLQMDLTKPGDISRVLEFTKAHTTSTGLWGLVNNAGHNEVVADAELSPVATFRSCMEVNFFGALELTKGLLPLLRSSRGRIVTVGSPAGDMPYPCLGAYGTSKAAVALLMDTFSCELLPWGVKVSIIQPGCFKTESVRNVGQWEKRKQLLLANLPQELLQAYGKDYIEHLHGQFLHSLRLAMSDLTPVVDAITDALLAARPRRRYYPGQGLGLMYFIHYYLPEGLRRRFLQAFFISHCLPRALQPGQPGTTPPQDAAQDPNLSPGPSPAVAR
It counts as biochemical. Particulars: read-out: Km for human 11β-HSD2.

Where [5] appears, read: after orally dosing LianhuaQingwen, 12 capsules/person.

“22α-hydroxyglycyrrhetic acid-3-O-sulfate”: the “Detection in human plasma and urine samples” value (in vivo, po) was “not detected”. Also, the “Detection in rat plasma or urine samples” value in series [1] (rat, in vivo, po) is given as “not detected”.

With `CC1(C(=O)OC2OC(C(=O)O)C(O)C(O)C2O)CC(O)C2(C)CCC3(C)C(=CC(=O)C4C5(C)CCC(OS(=O)(=O)O)C(C)(C)C5CCC43C)C2C1` (stereo not drawn) [22α-hydroxyglycyrrhetic acid-3-O-sulfate-30-O-glucuronide], the “Detection in human plasma and urine samples” value (in vivo, po) is reported as “not detected”. Further, the “Detection in rat plasma or urine samples” value in series [1] (rat, in vivo, po) is on record as “not detected”.

Consider `CC1(C)[C@@H](O[C@H]2O[C@H](C(=O)O)[C@@H](O)[C@H](O)[C@H]2O[C@@H]2O[C@H](C(=O)O)[C@@H](O)[C@H](O)[C@H]2O)CC[C@]2(C)[C@H]3C(=O)C=C4[C@@H]5C[C@@](C)(C(=O)O)CC[C@]5(C)CC[C@@]4(C)[C@]3(C)CC[C@@H]12` [Compound 1, Glycyrrhizin], for which the “transport rate, membrane permeation in mock cells” value in series [2] is under 5 pmol·min^−1·mg^−1 protein. In series [3], the “BCS Class” value is “BCS Class III”. Also, the “Presence in human samples” value (in vivo, po) is on record as “Plasma, urine, feces”. Also, in series [1] (rat, in vivo, po), the “Presence in rat samples” value is “Plasma, bile, urine, feces”.

In the case of `CC1(C)[C@@H](O[C@@H]2O[C@H](C(=O)O)[C@@H](O)[C@H](O)[C@H]2O[C@@H]2O[C@H](C(=O)O)[C@@H](O)[C@H](O)[C@H]2O)CC[C@]2(C)[C@H]3C(=O)C=C4[C@@H]5C[C@](C)(C(=O)O)CC[C@]5(C)CC[C@@]4(C)[C@]3(C)CC[C@@H]12` [Compound 3, Licorice saponin H2], the “Presence in rat samples” value in series [1] (rat, in vivo, po) was “Plasma, bile, urine, feces”.

In the case of `O=C1C[C@@H](c2ccc(O[C@@H]3O[C@H](CO)[C@@H](O)[C@H](O)[C@H]3O)cc2)Oc2cc(O)ccc21` [Compound 21, Liquiritin], in series [2] (human, 10 min, 50 µmol/L), the “transport rate, membrane permeation in mock cells” value is given as under 5 pmol·min^−1·mg^−1 protein. Besides, the “BCS Class” value in series [3] is reported as “BCS Class III”. Also, the “Presence in human samples” value (in vivo, po) is “Plasma, urine”. Further, the “Presence in rat samples” value in series [1] (rat, in vivo, po) is “Plasma, bile, urine, feces”.

Turning to `O=C(/C=C/c1ccc(O[C@@H]2O[C@H](CO)[C@@H](O)[C@H](O)[C@H]2O)cc1)c1ccc(O)cc1O` [Compound 24, Isoliquiritin], under setting [5], the “Presence in human samples” value is “Plasma, urine”. In addition, the “Presence in rat samples” value in series [1] (after orally dosing LianhuaQingwen, 3.78 g/kg) is reported as “Plasma, bile, urine, feces”.

For `O=C(/C=C/c1ccc(O)cc1)c1ccc(O)cc1O` [Compound 26, Isoliquiritigenin], the “Presence in human samples” value under setting [5] is listed as “Plasma, urine, feces”.

On to `O=C(CCc1ccc(O)cc1)c1ccc(O)cc1O` [Compound M27R, Davidigenin], for which the “Presence in human samples” value (in vivo, po) is “Urine”.

By Km is commonly meant the substrate concentration at which the rate is half of its maximum. As for `C[C@]12CCC(=O)C=C1CC[C@@H]1[C@@H]2[C@@H](O)C[C@@]2(C)[C@H]1CC[C@]2(O)C(=O)CO` [cortisol], in series [4], the Michaelis constant (Km) came out at 45 nM.
